# Results published in article PMC10969742, “A Phase I Study of the Oral Dual-Acting Pan-PI3K/mTOR Inhibitor Bimiralisib in Patients with Advanced Solid Tumors” (Cancers, 2024).
# “Also recorded” adds a separate entry of the source. Read-outs that look alike come from different tables or passages of the source.
# What was measured:
# [1] = tested on: patients with advanced solid tumors; assay type: in vivo
# Protocol: This was a Phase 1, open-label, multi-center, non-randomized, dose escalation study evaluating DLTs, tolerability, PK, and preliminary efficacy of bimiralisib in the treatment of patients with advanced solid tumors for which no standard curative or life-prolonging therapy is available. This study was conducted in the US (MD Anderson Cancer Center, Houston; Mayo Clinic Rochester; Roswell Park Comprehensive Cancer Center, Buffalo; University Hospitals of Cleveland), Spain (Vall Hebron University Hospital), Switzerland (Basel University Hospital), and UK (University College London Hospitals NHS Trust and Oxford Universities NHS Trust).
# (§1) The primary objective of the study was to determine the MTD of bimiralisib administered according to three different dosing schedules. Bimiralisib was formulated as 20 mg and 80 mg capsules for oral administration. The first dosing schedule to be evaluated was continuous (once daily) dosing over a 21-day cycle. […] Patients enrolled in the continuous schedule and intermittent schedule A received a single lead-in dose, administered on […] prior to the start of the first 21-day treatment cycle, to characterize single-dose pharmacokinetics. Based on the previous first-in-human trial with bimiralisib, together with the expected toxicity profile of PI3K/mTOR inhibitors, the starting dose (dose-level 1) of bimiralisib in Study PQR309-003 was set at 80 mg daily.
# (§2) Safety was monitored by physical examination, vital signs, weight, electrocardiogram, ECOG performance status, laboratory evaluations (including glucose monitoring), and patient self-reported mood questionnaires, as well as AEs. All AEs were coded with NCI Common Terminology Criteria for Adverse Events (CTCAE) v4.03 [27]. The MTD was defined as the maximum dose level at which ≤1/6 patients have DLTs. A DLT was defined by the occurrence of grade 3 or 4 AE that is possibly, probably, or definitely related to bimiralisib within the first 21 days of treatment. Bimiralisib treatment was interrupted if patients experienced any DLTs. If the patient derived benefit from the treatment as determined by the investigator, treatment could be resumed at a lower dose in agreement with the study sponsor.
# Patients were discontinued from trial if they had evidence of clinical, symptomatic, or radiographic disease progression or relapse, unacceptable drug related AEs, non-compliance to the protocol, voluntary withdrawal, or pregnancy. Treatment compliance was established with patient diaries and records of medication used and dosages administered.
# Descriptive statistics were used to present the data. Categorical data were summarized in contingency tables presenting frequencies and percentages. Continuous data were summarized using the number of non-missing values (n), mean, standard deviation (SD), median, Q1, Q3, minimum and maximum values, as appropriate. Data were analyzed using SAS. No tests of significance were planned to compare study treatment groups on baseline data. The efficacy and safety analysis set comprised all patients who receive ≥1 dose of bimiralisib.
# [2] = tested on: patients with advanced solid tumors; test: Phase 1 3 + 3 dose escalation: DLTs and MTD determination; assay type: in vivo
# Protocol: as §1
# Enrollment of cohorts into the dose escalation followed a typical 3 + 3 design, with escalation/de-escalation based on the dose-limiting toxicities observed as described in Table 1 and Table 2. Up to 5 dose levels were planned in the continuous schedule to a maximum of 180 mg daily. For the intermittent schedules, up to 7 dose levels were planned, to a maximum of 240 mg daily. One dose level for de-escalation was planned for all schedules. Patient cohorts, consisting initially of three patients, were enrolled depending on the safety and tolerability of the initial cohort. Patients were treated until disease progression, unacceptable toxicity, patient’s request for withdrawal, investigator judgment, or death, whichever came first.
# as §2
smiles,measurement,setting,value
"Nc1cc(C(F)(F)F)c(-c2nc(N3CCOCC3)nc(N3CCOCC3)n2)cn1 [bimiralisib, 5-(4,6-Dimorpholino-1,3,5-triazin-2-yl)-4-(trifluoromethyl)pyridin-2-amine]",Any TEAE,[1]; Continuous (n = 21),21 (100) n (%)
same,Any drug-related AE,[1]; Continuous (n = 21),21 (100) n (%)
same,Any drug-related grade ≥ 3 AE,[1]; Continuous (n = 21),11 (52.4) n (%)
same,Any drug-related serious AE,[1]; Continuous (n = 21),2 (10) n (%)
same,Any grade ≥ 3 TEAE,[1]; Continuous (n = 21),17 (81) n (%)
same,Any serious AE,[1]; Continuous (n = 21),9 (43) n (%)
same,Common TEAE: ALT elevation,[1]; Continuous (n = 21),1 (4.76) n (%)
same,Common TEAE: Abdominal pain,[1]; Continuous (n = 21),1 (4.76) n (%)
same,Common TEAE: Anemia,[1]; Continuous (n = 21),0 (0) n (%)
same,Common TEAE: Anxiety,[1]; Continuous (n = 21),5 (23.8) n (%)
same,Common TEAE: Ascites,[1]; Continuous (n = 21),0 (0) n (%)
same,Common TEAE: Asthenia,[1]; Continuous (n = 21),6 (28.6) n (%)
same,Common TEAE: Back pain,[1]; Continuous (n = 21),4 (19.1) n (%)
same,Common TEAE: Cachexia,[1]; Continuous (n = 21),4 (19.1) n (%)
same,Common TEAE: Cough,[1]; Continuous (n = 21),2 (9.5) n (%)
same,Common TEAE: Decreased appetite,[1]; Continuous (n = 21),11 (52.4) n (%)
same,Common TEAE: Dehydration,[1]; Continuous (n = 21),6 (28.6) n (%)
same,Common TEAE: Depression,[1]; Continuous (n = 21),5 (23.8) n (%)
same,Common TEAE: Diarrhea,[1]; Continuous (n = 21),10 (47.6) n (%)
same,Common TEAE: Disturbance attention,[1]; Continuous (n = 21),11 (52.4) n (%)
same,Common TEAE: Dry Mouth,[1]; Continuous (n = 21),10 (47.6) n (%)
same,Common TEAE: Dry skin,[1]; Continuous (n = 21),7 (33.3) n (%)
same,Common TEAE: Dysgeusia,[1]; Continuous (n = 21),4 (19.1) n (%)
same,Common TEAE: Dyspepsia,[1]; Continuous (n = 21),1 (4.76) n (%)
same,Common TEAE: Dyspnea,[1]; Continuous (n = 21),4 (19.1) n (%)
same,Common TEAE: Fatigue,[1]; Continuous (n = 21),13 (61.9) n (%)
same,Common TEAE: Headache,[1]; Continuous (n = 21),0 (0) n (%)
same,Common TEAE: Hyperglycemia,[1]; Continuous (n = 21),16 (76.2) n (%)
same,Common TEAE: Hyperinsulinemia,[1]; Continuous (n = 21),7 (33.3) n (%)
same,Common TEAE: Hyperkalemia,[1]; Continuous (n = 21),0 (0) n (%)
same,Common TEAE: Hyperphosphatasemia,[1]; Continuous (n = 21),1 (4.76) n (%)
same,Common TEAE: Hypokalemia,[1]; Continuous (n = 21),6 (28.6) n (%)
same,Common TEAE: Irritability,[1]; Continuous (n = 21),0 (0) n (%)
same,Common TEAE: Malaise,[1]; Continuous (n = 21),4 (19.1) n (%)
same,Common TEAE: Mucosal Inflammation,[1]; Continuous (n = 21),0 (0) n (%)
same,Common TEAE: Neck pain,[1]; Continuous (n = 21),0 (0) n (%)
same,Common TEAE: Pruritus,[1]; Continuous (n = 21),6 (28.6) n (%)
same,Common TEAE: Rash,[1]; Continuous (n = 21),4 (19.1) n (%)
same,Common TEAE: Tachycardia,[1]; Continuous (n = 21),4 (19.1) n (%)
same,Common TEAE: Upper respiratory tract infection,[1]; Continuous (n = 21),1 (4.76) n (%)
same,Common TEAE: Vomiting,[1]; Continuous (n = 21),10 (47.6) n (%)
same,Common TEAE: Weight decrease,[1]; Continuous (n = 21),11 (52.4) n (%)
same,Grade ≥ 3 TEAE: ALT elevation,[1]; Continuous (n = 21),1 (4.8) n (%)
same,Grade ≥ 3 TEAE: Dehydration,[1]; Continuous (n = 21),4 (19) n (%)
same,Grade ≥ 3 TEAE: Fatigue,[1]; Continuous (n = 21),7 (33.3) n (%)
same,Grade ≥ 3 TEAE: Hyperglycemia,[1]; Continuous (n = 21),6 (28.6) n (%)
same,Patients discontinuing study due to AE,[1]; Continuous (n = 21),5 (24.0%) n (%)
same,Study discontinuation due to AE: Dehydration,[1]; Continuous (n = 21),2 (9.5%) n (%)
same,Study discontinuation due to AE: Ejection Fraction decreased,[1]; Continuous (n = 21),1 (4.8%) n (%)
same,Study discontinuation due to AE: Fatigue,[1]; Continuous (n = 21),3 (14.3%) n (%)
same,Study discontinuation due to AE: Tumor pain,[1]; Continuous (n = 21),1 (4.8%) n (%)
same,Treatment-related death,[1]; Continuous (n = 21),0 (0) n (%)
same,Common TEAE: Upper respiratory tract infection,"[1]; Intermittent A, n = 25",3 (12) n (%)
same,Study discontinuation due to AE: Urinary Tract Infection,"[1]; Intermittent A, n = 25",1 (4.0%) n (%)
same,Treatment-related death,"[1]; Intermittent A, n = 25",0 (0) n (%)
same,Common TEAE: Upper respiratory tract infection,"[1]; Intermittent B, n = 24",1 (4.2) n (%)
same,Treatment-related death,"[1]; Intermittent B, n = 24",0 (0) n (%)
same,Common TEAE: Upper respiratory tract infection,[1]; Total n = 70,5 (7.1) n (%)
same,Study discontinuation due to AE: Urinary Tract Infection,[1]; Total n = 70,1 (1.4%) n (%)
same,Treatment-related death,[1]; Total n = 70,0 (0) n (%)
same,Patients who died during the study,"[1]; all patients, 19 patients",27.1%
same,"Grade > 3 TEAE fatigue, frequency",[1]; continuous dosing,33.3%
same,"Grade > 3 TEAE hyperglycemia, frequency",[1]; continuous dosing,28.6%
same,Patients experiencing Grade > 3 TEAEs,[1]; continuous dosing,81%
same,Patients who discontinued due to treatment-related fatigue,[1]; continuous dosing,2 patients
same,Patients who discontinued the study due to AEs,[1]; continuous dosing,5 patients
same,"Treatment-emergent AE hyperglycemia, frequency",[1]; continuous schedule,76.2%
same,Dose reduction due to TEAEs,"[1]; continuous schedule, n = 2",10%
same,Dose interruption due to TEAEs,"[1]; continuous schedule, n = 11",52%
same,Discontinued study treatment: AEs,"[1]; human, in vivo",12.9%
same,"Grade > 3 TEAE hyperglycemia, frequency","[1]; human, in vivo",12.5%
same,Patients experiencing one or more TEAEs,"[1]; human, in vivo",99%
same,Patients reporting one or more serious adverse events (SAEs),"[1]; human, in vivo",40%
same,Patients who discontinued due to treatment-related fatigue,"[1]; human, in vivo",1 patients
same,Patients who discontinued the study due to AEs,"[1]; human, in vivo",3 patients
same,Patients with TEAEs related to the study drug,"[1]; human, in vivo",91%
same,SAEs considered related to study drug,"[1]; human, in vivo",6%
same,Study discontinuation due to AE: Dehydration,"[1]; human, in vivo",2 (2.8%) n (%)
same,Study discontinuation due to AE: Ejection Fraction decreased,"[1]; human, in vivo",1 (1.4%) n (%)
same,Study discontinuation due to AE: Tumor pain,"[1]; human, in vivo",1 (1.4%) n (%)
same,"Treatment-emergent AE nausea, frequency","[1]; human, in vivo",56–62.5%
same,Patients who discontinued due to AEs considered to be treatment-related,[1]; in vivo,five
same,"SAEs considered related to study drug, number",[1]; in vivo,two
same,"Grade > 3 TEAE fatigue, frequency",[1]; intermittent schedule A,0%
same,"Grade > 3 TEAE hyperglycemia, frequency",[1]; intermittent schedule A,12%
same,Patients experiencing Grade > 3 TEAEs,[1]; intermittent schedule A,56%
same,Patients who discontinued the study due to AEs,[1]; intermittent schedule A,1 patients
same,"SAEs considered related to study drug, number",[1]; intermittent schedule A,zero
same,Dose reduction due to TEAEs,"[1]; intermittent schedule A, n = 0",0%
same,Dose interruption due to TEAEs,"[1]; intermittent schedule A, n = 9",36%
same,"Grade > 3 TEAE fatigue, frequency",[1]; intermittent schedule B,8.3%
same,"SAEs considered related to study drug, number",[1]; intermittent schedule B (diarrhea and hyperglycemia),two
same,Dose reduction due to TEAEs,"[1]; intermittent schedule B, n = 1",4%
same,Dose interruption due to TEAEs,"[1]; intermittent schedule B, n = 9",38%
same,Deaths due to disease progression,[1]; of 19 deaths during the study,16 patients
same,"Deaths due to other reasons unrelated to bimiralisib (vessel rupture, sepsis, new small cell carcinoma)",[1]; of 19 deaths during the study,3 patients
same,Maximum tolerated dose (MTD),[2]; continuous schedule (once daily),80 mg
same,"Dose-limiting toxicity (DLT), kind",[2]; in vivo,grade three fatigue
same,Patients with dose interruptions or discontinuation due to treatment-related AEs during first 21-day dosing cycle,[2]; in vivo,Four of these five
same,Maximum tolerated dose (MTD),"[2]; intermittent schedules A and B, up to 200 mg",No MTD was reached; also recorded: neither intermittent schedule reached MTD
